Consider 26 compounds from US20220098159A1, “CARBAMATE DERIVATIVES AND USES THEREOF” (Nodthera Limited, priority 2019, published 2022).

Some results are limits rather than exact numbers.

One assay deals with IL-1β release upon NLRP3 activation in peripheral blood mononuclear cells (PBMC). Briefly: PBMC IC50 determination assay (inhibition of IL-1β release upon NLRP3 activation). It is filed as cell-based. The following applies: Homo sapiens, PBMC, read-out: Average PBMC IC50 (μM). On the procedure:
The compounds of the present disclosure were tested for their inhibitory activity against IL-1β release upon NLRP3 activation in peripheral blood mononuclear cells (PBMC).
Protocol A. PBMC were isolated from buffy coats by density gradient centrifugation on Histopaque-1077 (Sigma, cat no. 10771). Isolated cells were seeded into the wells of a 96-well plate and incubated for 3 h with lipopolysaccharide (LPS). Following medium exchange, the compounds of the present disclosure were added (a single compound per well) and the cells were incubated for 30 min. Next, the cells were stimulated either with ATP (5 mM) or nigericin (10 μM) for 1 h and the cell culture media from the wells were collected for further analysis.
The release of IL-1β into the media was determined by a quantitative detection of IL-1β in the media using an IL-1β enzyme-linked immunosorbent assay (ELISA) Ready-SET-Go!, eBioscience cat. No. 88-7261-88. Briefly, in a first step, high affinity binding plates (Corning, Costar 9018 or NUNC Maxisorp Cat No. 44-2404) were coated overnight at 4° C. with specific capture antibody included in the kit (anti-human IL-1β ref. 14-7018-68). Subsequently, plates were blocked with blocking buffer for 1 h at room temperature (rt) and after washing with a buffer (PBS with 0.05% Tween-20) incubated with protein standard and culture media. After 2 h of incubation at rt, plates were washed and incubated with biotinylated detection antibody included in the kit (anti-human IL-1β Biotin ref. 33-7110-68) for 1 h at rt. Plates were washed and incubated with HRP-streptavidin for 30 min at rt and washed again. The signal was developed after addition of 3,3′,5,5′-tetramethylbenzidine-peroxidase (TMB) until colour appeared and the reaction was stopped by 2 M H2SO4. A microplate spectrophotometer (BioTek) was used to detect signals with 450 nm. The detection range of IL-1β ELISA was 2-150 ng/ml.
Protocol B. PBMC were isolated from buffy coats by density gradient centrifugation on Histopaque-1077 (Sigma, cat no. 10771). Isolated cells were seeded into the wells (280,000 cells/well) of a 96-well plate and incubated for 3 h with lipopolysaccharide (LPS, 1 μg/ml diluted 1000× from a 1 mg/ml stock solution). The compounds of the present disclosure were added (a single compound per well) and the cells were incubated for 30 min. Next, the cells were stimulated with ATP (5 mM final concentration diluted 20× from a 100 mM stock solution) for 1 h and the cell culture media from the wells were collected for further analysis.
The release of IL-1β into the media was determined by quantitative detection of IL-1β in the media using HTRF®, CisBio cat. No. 62HIL1BPEH. Briefly, cell culture supernatant were dispensed directly into the assay plate containing antibodies labelled with the HTRF® donor and acceptor. A microplate spectrophotometer (BMG) was used to detect signals at 655 nm and 620 nm. The detection range of IL-1β HTRF® was 39-6500 pg/ml.
In the case of `CC(C)OC(=O)C(Cc1ncccn1)OC(=O)N[C@@H](C)c1ccc(Cl)c(Cl)c1` (stereo partly drawn) [Compound 2, Propan-2-yl 2-({[(1S)-1-(3,4-dichlorophenyl)ethyl]carbamoyl}oxy)-3-(pyrimidin-2-yl)propanoate], the concentration for half-maximal inhibition (IC50) fell in the range of 10 to 50 µM.

As for `CC(C)OC(=O)[C@@H](Cn1cncn1)OC(=O)N[C@@H](C)c1ccc(C2CC2)cc1` [Compound 10, Propan-2-yl (2R)-2-({[(1S)-1-(4-cyclopropylphenyl)ethyl]carbamoyl}oxy)-3-(1H-1,2,4-triazol-1-yl)propanoate], the IC50 was under 1 µM.

For the compound `CCc1ccc([C@H](C)NC(=O)O[C@H](Cn2cncn2)C(=O)OC(C)C)cc1` [Compound 12, Propan-2-yl (2R)-2-({[(1S)-1-(4-ethylphenyl)ethyl]carbamoyl}oxy)-3-(1H-1,2,4-triazol-1-yl)propanoate], the IC50 is under 1 µM.

As to `CC(C)OC(=O)[C@@H](Cn1cncn1)OC(=O)N[C@@H](C)c1ccc(C(C)C)cc1` [Compound 13, Propan-2-yl (2R)-2-({[(1S)-1-[4-(propan-2-yl)phenyl]ethyl]carbamoyl}oxy)-3-(1H-1,2,4-triazol-1-yl)propanoate], the IC50 was under 1 µM.

For `CC(C)OC(=O)[C@@H](Cn1cncn1)OC(=O)N[C@@H](C)c1ccc(C(F)(F)F)nc1` [Compound 14, Propan-2-yl (2R)-3-(1H-1,2,4-triazol-1-yl)-2-({[(1S)-1-[6-(trifluoromethyl)pyridin-3-yl]ethyl]carbamoyl}oxy)propanoate], the IC50 was 10 to 50 µM.

Take `CC(C)OC(=O)[C@@H](Cn1cncn1)OC(=O)N[C@H](C)c1ccc(C(F)(F)F)nc1` [Compound 15, Propan-2-yl (2R)-3-(1H-1,2,4-triazol-1-yl)-2-({[(1R)-1-[6-(trifluoromethyl)pyridin-3-yl]ethyl]carbamoyl}oxy)propanoate]: the IC50 was 10 to 50 µM.

As for `CCCC(NC(=O)OC(Cc1ncccn1)C(=O)OC(C)C)c1ccc(C(F)(F)F)cc1` (centres unmarked) [Compound 21, Propan-2-yl 3-(pyrimidin-2-yl)-2-[({1-[4-(trifluoromethyl)phenyl]butyl}carbamoyl)oxy]propanoate], the IC50 is 1 to 3 µM.

The assay is the same for the next values; noted with them: Homo sapiens; PBMC from buffy coats, LPS 3 h, compound 30 min, then ATP (5 mM) or nigericin (10 μM) 1 h; IL-1β in media by ELISA (Protocol A) or HTRF (Protocol B); read-out: Average PBMC IC50.
In the case of `CCOC(=O)C(Cn1cccn1)OC(=O)N[C@@H](C)c1ccc(Cl)cc1` (stereo partly drawn) [Compound 1, Ethyl 2-({[(1S)-1-(4-chlorophenyl)ethyl]carbamoyl}oxy)-3-(1H-pyrazol-1-yl)propanoate], the IC50 was in the range of 10 to 50 µM.

As for `CC(C)OC(=O)C(Cc1ncccn1)OC(=O)N[C@@H](C)c1ccc(Cl)cc1` (stereo partly drawn) [Compound 3, Propan-2-yl 2-({[(1S)-1-(4-chlorophenyl)ethyl]carbamoyl}oxy)-3-(pyrimidin-2-yl)propanoate], the concentration for half-maximal inhibition (IC50) is under 1 µM.

Consider `CC(C)OC(=O)C(Cc1ncccn1)OC(=O)N[C@@H](C)c1ccc(C#N)cc1` (stereo partly drawn) [Compound 4, Propan-2-yl 2-({[(1S)-1-(4-cyanophenyl)ethyl]carbamoyl}oxy)-3-(pyrimidin-2-yl)propanoate], for which the IC50 was 1 to 3 µM.

On to `CC(C)OC(=O)C(Cc1ncccn1)OC(=O)N[C@@H](C)c1ccc(C(F)(F)F)cc1` (stereo partly drawn) [Compound 5, Propan-2-yl 3-(pyrimidin-2-yl)-2-({[(1S)-1-[4-(trifluoromethyl)phenyl]ethyl]carbamoyl}oxy)propanoate], for which the IC50 is under 1 µM.

For `CC(C)OC(=O)[C@@H](Cn1cncn1)OC(=O)N[C@@H](C)c1ccc(C(C)(C)C)cc1` [Compound 6, Propan-2-yl (2R)-2-({[(1S)-1-(4-tert-butylphenyl)ethyl]carbamoyl}oxy)-3-(1H-1,2,4-triazol-1-yl)propanoate], the IC50 was under 1 µM.

`CC(C)OC(=O)[C@@H](Cn1cncn1)OC(=O)N[C@@H](C)c1ccc(OCC(F)(F)F)cc1` [Compound 7, Propan-2-yl (2R)-3-(1H-1,2,4-triazol-1-yl)-2-({[(1S)-1-[4-(2,2,2-trifluoroethoxy)phenyl]ethyl]carbamoyl}oxy)propanoate]: the IC50 is under 1 µM.

For the compound `CC(C)OC(=O)[C@@H](Cn1cncn1)OC(=O)N[C@@H](C)c1ccc(COc2ccccc2)cc1` [Compound 8, Propan-2-yl (2R)-2-({[(1S)-1-[4-(phenoxymethyl)phenyl]ethyl]carbamoyl}oxy)-3-(1H-1,2,4-triazol-1-yl)propanoate], the IC50 lay within 1 to 3 µM.

With `CC(C)OC(=O)[C@@H](Cn1cncn1)OC(=O)N[C@@H](C)c1ccc(C(F)(F)F)c(F)c1` [Compound 9, Propan-2-yl (2R)-2-({[(1S)-1-[3-fluoro-4-(trifluoromethyl)phenyl]ethyl]carbamoyl}oxy)-3-(1H-1,2,4-triazol-1-yl)propanoate], the IC50 was under 1 µM.

For the compound `CC(C)OC(=O)[C@@H](Cn1cncn1)OC(=O)N[C@@H](C)c1ccc(C(F)(F)F)cc1` [Compound 11, Propan-2-yl (2R)-3-(1H-1,2,4-triazol-1-yl)-2-({[(1S)-1-[4-(trifluoromethyl)phenyl]ethyl]carbamoyl}oxy)propanoate], the IC50 is under 1 µM.

Regarding `CC(C)OC(=O)C(Cc1ncccn1)OC(=O)NC(C)c1ccc(C(F)(F)F)cc1Cl` (centres unmarked) [Compound 16, Isopropyl 2-[1-[2-chloro-4-(trifluoromethyl)phenyl]ethylcarbamoyloxy]-3-pyrimidin-2-yl-propaneate], the half-inhibitory concentration (IC50) is under 1 µM.

Regarding `CC(C)OC(=O)[C@@H](Cn1cncn1)OC(=O)NC(C)c1ncc(C(F)(F)F)cn1` (stereo partly drawn) [Compound 18, Propan-2-yl (2R)-3-(1H-1,2,4-triazol-1-yl)-2-[({1-[5-(trifluoromethyl)pyrimidin-2-yl]ethyl}carbamoyl)oxy]propanoate], the IC50 was in the range of 3 to 10 µM.

For the compound `COc1cc(C(F)(F)F)ccc1C(C)NC(=O)OC(Cc1ncccn1)C(=O)OC(C)C` (centres unmarked) [Compound 19, Propan-2-yl 2-[({1-[2-methoxy-4-(trifluoromethyl)phenyl]ethyl}carbamoyl)oxy]-3-(pyrimidin-2-yl)propanoate], the IC50 is under 1 µM.

As for `Cc1cc(C(F)(F)F)ccc1C(C)NC(=O)OC(Cc1ncccn1)C(=O)OC(C)C` (centres unmarked) [Compound 20, Isopropyl 2-[1-[2-methyl-4-(trifluoromethyl)phenyl]ethylcarbamoyloxy]-3-pyrimidin-2-yl-propanoate], the concentration for half-maximal inhibition (IC50) is under 1 µM.

Regarding `CCc1cc(C(F)(F)F)ccc1C(C)NC(=O)OC(Cc1ncccn1)C(=O)OC(C)C` (centres unmarked) [Compound 22, Propan-2-yl 2-[({1-[2-ethyl-4-(trifluoromethyl)phenyl]ethyl}carbamoyl)oxy]-3-(pyrimidin-2-yl)propanoate], the IC50 is under 1 µM.

For the compound `CC(C)OC(=O)[C@@H](Cc1ncccn1)OC(=O)N[C@@H](C)c1ccc(C(F)(F)F)cc1` [Compound 23, Propan-2-yl (2R)-3-(pyrimidin-2-yl)-2-({[(1S)-1-[4-(trifluoromethyl)phenyl]ethyl]carbamoyl}oxy)propanoate], the IC50 is under 1 µM.

With `C[C@H](NC(=O)O[C@H](Cc1ncccn1)C(=O)O)c1ccc(C(F)(F)F)cc1` [Compound 24, (2R)-3-(Pyrimidin-2-yl)-2-({[(1S)-1-[4-(trifluoromethyl)phenyl]ethyl]carbamoyl}oxy)propanoic acid], the IC50 fell in the range of 3 to 10 µM.

Take `CC(C)OC(=O)[C@@H](Cc1ncccn1)OC(=O)N[C@@H](C)c1ccc(C(F)(F)F)cc1Cl` [Compound 25, Propan-2-yl (2R)-2-({[(1S)-1-[2-chloro-4-(trifluoromethyl)phenyl]ethyl]carbamoyl}oxy)-3-(pyrimidin-2-yl)propanoate]: the IC50 was under 1 µM.

Regarding `C[C@H](NC(=O)O[C@H](Cc1ncccn1)C(=O)O)c1ccc(C(F)(F)F)cc1Cl` [Compound 26, (2R)-2-({[(1S)-1-[2-Chloro-4-(trifluoromethyl)phenyl]ethyl]carbamoyl}oxy)-3-(pyrimidin-2-yl)propanoic acid], the IC50 lay within 3 to 10 µM.

With `CC(C)OC(=O)[C@@H](Cc1ncccn1)OC(=O)N(C)[C@@H](C)c1ccc(C(F)(F)F)cc1Cl` [Compound 27, Propan-2-yl (2R)-2-({[(1S)-1-[2-chloro-4-(trifluoromethyl)phenyl]ethyl](methyl)carbamoyl}oxy)-3-(pyrimidin-2-yl)propanoate], the 50% inhibitory concentration (IC50) was in the range of 1 to 3 µM.

By IC50 is commonly meant the concentration needed to halve the response being measured.
